Tests used:
[1] = target: recombinant human KRAS^G12D protein (Homo sapiens, UniProt P01116, G12D); experiment: Temperature-dependent Fluorescence (TdF) KRAS G12D protein binding assay; details: 6 μM KRAS^G12D protein, 10 μM compound, Sypro Orange; Kd calculated from the fluorescent shift
Protocol: The Temperature-dependent Fluorescence (TdF) assay was used to analyze binding affinity of compound to recombinant human KRAS^G12D protein. The TdF assay was conducted in the 96-well-based real-time fluorescence plate reader (ABI 7500 or Roche LightCycler 480). Fluorescent dye Sypro Orange (Sigma) was used to monitor the protein folding-unfolding transition. Protein-compound binding was gauged by the shift in the unfolding transition temperature (ΔTm) acquired with and without compound. Each reaction sample consists of 6 μM KRAS^G12D Protein, 10 μM compound, and Sypro Orange dye (in 1% DMSO) in 20 μL reaction buffer (25 mM HEPES pH 7.5, 150 mM NaCl, 10 mM MgCl2). […] Binding affinity (Kd value) was calculated based on the degree of fluorescent shift of the protein with and without compound.

Ba/F3_KRAS^G12D cells = Ba/F3_KRAS^G12D cells (Homo sapiens, UniProt P01116, G12D, cells depend on it); experiment: Ba/F3 KRAS G12D cell proliferation assay (CellTiter-Glo); type: cell-based; details: treated for 3 days, cell-titer Glo, cell growth inhibition, read-out: BaF3_KRAS^G12D IC50
Ba/F3_KRAS^G12D cells, sequence (P01116 whole entry G12D): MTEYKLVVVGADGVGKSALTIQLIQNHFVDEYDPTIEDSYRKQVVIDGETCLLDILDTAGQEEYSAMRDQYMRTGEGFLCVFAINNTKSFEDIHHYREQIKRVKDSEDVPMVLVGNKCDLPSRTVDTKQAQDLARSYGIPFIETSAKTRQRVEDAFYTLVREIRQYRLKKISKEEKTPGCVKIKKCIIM
Protocol: Ba/F3_KRAS^G12D cells (KYinno, China) were generated by transducing Ba/F3 parental cells with the recombinant KRAS^G12D lentivirus and followed by 1 ug/mL of puromycin selection and IL3 depletion. […] Cells were seeded at a density of 5×10^3 per well into 96-well plate and incubated overnight. Serial diluted compounds were added to each well. Cells were treated with the compounds for 3 days, after which cell-titer Glo reagent (Promega #G7572) was used to assess cell proliferation. The luminescence signal was then collected on Tecan Spark plate reader. […] Cell growth inhibition of IC50 is calculated with the equation of Y=Bottom+(Top−Bottom)/(1+10^((Log IC50−X)*Hill Slope))

recombinant human KRAS^G12D protein, sequence (P01116 1-188 isoform P01116-2 G12D): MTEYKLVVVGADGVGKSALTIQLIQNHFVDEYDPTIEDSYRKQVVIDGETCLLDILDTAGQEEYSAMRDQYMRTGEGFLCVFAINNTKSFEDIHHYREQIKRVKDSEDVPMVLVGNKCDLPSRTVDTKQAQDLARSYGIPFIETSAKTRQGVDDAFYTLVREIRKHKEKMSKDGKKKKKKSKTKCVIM

Kd [1]	GI50 (Ba/F3_KRAS^G12D cells)	SMILES
500 to 5000 nM	500 to 5000 nM	CN1CC(COc2nc(N3CC4CCC(C3)N4)c3cc(Cl)c(-c4cc(O)cc5ccccc45)c(F)c3n2)CC(F)(F)C1 (centres unmarked) [Compound 50]
> 5000 nM	500 to 5000 nM	CN(C)CC1CN(c2nc(N3CC4CCC(C3)N4)c3cc(Cl)c(-c4cc(O)cc5ccccc45)c(F)c3n2)C1 [Compound 51]
> 5000 nM	500 to 5000 nM	CN(C)C1CCN(c2nc(N3CC4CCC(C3)N4)c3cc(Cl)c(-c4cc(O)cc5ccccc45)c(F)c3n2)C1 (centres unmarked) [Compound 52]
> 5000 nM	500 to 5000 nM	CN(C)CC1CCN(c2nc(N3CC4CCC(C3)N4)c3cc(Cl)c(-c4cc(O)cc5ccccc45)c(F)c3n2)CC1 [Compound 53]
> 5000 nM	500 to 5000 nM	CN(C)C1CCN(c2nc(N3CC4CCC(C3)N4)c3cc(Cl)c(-c4cc(O)cc5ccccc45)c(F)c3n2)CC1 [Compound 54]
< 500 nM	< 500 nM	N#Cc1cc2c(N3CC4CCC(C3)N4)nc(OC[C@@]34CCCN3C[C@H](F)C4)nc2c(F)c1-c1cc(O)cc2cccc(Cl)c12 [Compound 55]
> 5000 nM	500 to 5000 nM	CN(C)C1CCCN(c2nc(N3CC4CCC(C3)N4)c3cc(Cl)c(-c4cc(O)cc5ccccc45)c(F)c3n2)C1 (centres unmarked) [Compound 56]
> 5000 nM	500 to 5000 nM	CN1CCOCC1COc1nc(N2CC3CCC(C2)N3)c2cc(Cl)c(-c3cc(O)cc4ccccc34)c(F)c2n1 (centres unmarked) [Compound 57]
< 500 nM	< 500 nM	Oc1cc(-c2c(Cl)cc3c(N4CC5CCC(C4)N5)nc(OC[C@@]45CCCN4C[C@H](F)C5)nc3c2F)c2c(Cl)cccc2c1 [Compound 58]
> 5000 nM	500 to 5000 nM	Oc1cc(-c2c(Cl)cc3c(N4CC5CCC(C4)N5)nc(OCCN4CCOCC4)nc3c2F)c2ccccc2c1 [Compound 59]
> 5000 nM	500 to 5000 nM	CN1CCC(c2nc(N3CC4CCC(C3)N4)c3cc(Cl)c(-c4cc(O)cc5ccccc45)c(F)c3n2)CC1 [Compound 60]
< 500 nM	500 to 5000 nM	Oc1cc(-c2c(Cl)cc3c(N4CC5CCC(C4)N5)nc(OCC45CCCN4CCC5)nc3c2F)c2c(Cl)cccc2c1 [Compound 61]
< 500 nM	500 to 5000 nM	Oc1cc(-c2c(Cl)cc3c(N4CC5CCC(C4)N5)nc(OCC45CCCN4CC(F)(F)C5)nc3c2F)c2c(Cl)cccc2c1 (centres unmarked) [Compound 65]
500 to 5000 nM	500 to 5000 nM	Fc1c(-c2cccc3ccccc23)c(Cl)cc2c(N3CC4CCC(C3)N4)nc(OCC34CCCN3CCC4)nc12 [Compound 69]
500 to 5000 nM	> 5000 nM	Oc1ccc2ccccc2c1-c1c(Cl)cc2c(N3CC4CCC(C3)N4)nc(OCC34CCCN3CCC4)nc2c1F [Compound 70]
< 500 nM	< 500 nM	Oc1cc(-c2c(Cl)cc3c(N4CC5CCC(C4)N5)nc(OC[C@@]45CCCN4C[C@H](F)C5)nc3c2F)c2c(Cl)c(F)ccc2c1 [Compound 74]
< 500 nM	500 to 5000 nM	CN1C[C@H](F)C[C@H]1COc1nc(N2CC3CCC(C2)N3)c2cc(Cl)c(-c3cc(O)cc4ccccc34)c(F)c2n1 [Compound 76]
> 5000 nM	500 to 5000 nM	Oc1cc(-c2c(Cl)cc3c(N4CC5CCC(C4)N5)nc(OCCN4CCCC4)nc3c2F)c2ccccc2c1 [Compound 78]
< 500 nM	500 to 5000 nM	CN1CCC1COc1nc(N2CC3CCC(C2)N3)c2cc(Cl)c(-c3cc(O)cc4ccccc34)c(F)c2n1 (centres unmarked) [Compound 79]
< 500 nM	> 5000 nM	CN1C[C@H](O)C[C@H]1COc1nc(N2CC3CCC(C2)N3)c2cc(Cl)c(-c3cc(O)cc4ccccc34)c(F)c2n1 [Compound 80]
< 500 nM	500 to 5000 nM	Oc1cc(-c2c(Cl)cc3c(N4CC5CCC(C4)N5)nc(OCC45CCCN4CC(F)(F)C5)nc3c2F)c2ccccc2c1 (centres unmarked) [Compound 81]
> 5000 nM	500 to 5000 nM	CN1CCN(c2nc(N3CC4CCC(C3)N4)c3cc(Cl)c(-c4cc(O)cc5ccccc45)c(F)c3n2)CC1 [Compound 83]
< 500 nM	< 500 nM	Oc1cc(-c2c(Cl)cc3c(N4CC5CCC(C4)N5)nc(OCC45CCCN4CCC5)nc3c2F)c2ccccc2c1 [Compound 85]
< 500 nM	< 500 nM	N#Cc1cc2c(N3CC4CCC(C3)N4)nc(OC[C@@]34CCCN3C[C@H](F)C4)nc2c(F)c1-c1cc(O)cc2ccccc12 [Compound 86]
500 to 5000 nM	> 5000 nM	Nc1cc2ccccc2c(-c2c(Cl)cc3c(N4CC5CCC(C4)N5)nc(OCC45CCCN4CCC5)nc3c2F)n1 [Compound 116]

The remaining lines, values behind:

SMILES	Kd [1]	GI50 (Ba/F3_KRAS^G12D cells)
Fc1c(-c2cccc3cccc(Cl)c23)c(Cl)cc2c(N3CC4CCC(C3)N4)nc(OCC34CCCN3CCC4)nc12 [Compound 64]	500 to 5000 nM	< 500 nM
Nc1cccc(F)c1-c1c(Cl)cc2c(N3C4CCC3CNC4)nc(OCC34CCCN3CCC4)nc2c1F [Compound 66]	> 5000 nM	> 5000 nM
Oc1cccc(F)c1-c1c(Cl)cc2c(N3C4CCC3CNC4)nc(OCC34CCCN3CCC4)nc2c1F [Compound 67]	500 to 5000 nM	> 5000 nM
Fc1c(-c2cccc3cccc(Cl)c23)c(Cl)cc2c(N3C4CCC3CNC4)nc(OCC34CCCN3CCC4)nc12 [Compound 72]	500 to 5000 nM	500 to 5000 nM
Cc1cccc2[nH]nc(-c3c(Cl)cc4c(N5CC6CCC(C5)N6)nc(OC[C@@H]5CCCN5C)nc4c3F)c12 [Compound 75]	> 5000 nM	500 to 5000 nM
Oc1cc(-c2ccc3c(N4CC5CCC(C4)N5)nc(OCC45CCCN4CCC5)nc3c2F)c2c(Cl)cccc2c1 [Compound 82]	> 5000 nM	> 5000 nM
Cc1cccc2cccc(-c3c(C#N)cc4c(N5CC6CCC(C5)N6)nc(OC[C@@]56CCCN5C[C@H](F)C6)nc4c3F)c12 [Compound 87]	500 to 5000 nM	500 to 5000 nM
Cc1cccc2cc(O)cc(-c3c(C#N)cc4c(N5CC6CCC(C5)N6)nc(OC[C@@]56CCCN5C[C@H](F)C6)nc4c3F)c12 [Compound 88]	< 500 nM	< 500 nM
N#Cc1cc2c(N3CC4CCC(C3)N4)nc(OC[C@@]34CCCN3C[C@H](F)C4)nc2c(F)c1-c1cccc2cccc(Cl)c12 [Compound 89]	500 to 5000 nM	500 to 5000 nM
N#Cc1cc2c(N3CC4CCC(C3)N4)nc(OC[C@@]34CCCN3C[C@H](F)C4)nc2c(F)c1-c1c(N)cccc1F [Compound 91]	> 5000 nM	500 to 5000 nM
Cc1ccc2[nH]ncc2c1-c1c(C#N)cc2c(N3CC4CCC(C3)N4)nc(OC[C@@]34CCCN3C[C@H](F)C4)nc2c1F [Compound 92]	< 500 nM	< 500 nM
N#CC[C@H]1CN(c2nc(OC[C@@]34CCCN3C[C@H](F)C4)nc3c(F)c(-c4cc(O)cc5ccccc45)c(Cl)cc23)CCN1 [Compound 96]	> 5000 nM	500 to 5000 nM
Cc1cc(F)c2sc(N)nc2c1-c1c(Cl)cc2c(N3CC4CCC(C3)N4)nc(OC[C@@]34CCCN3C[C@H](F)C4)nc2c1F [Compound 100]	< 500 nM	500 to 5000 nM
Cc1cc(-c2c(Cl)cc3c(N4CC5CCC(C4)N5)nc(OC[C@@H]4CCCN4C)nc3c2F)cc2[nH]ncc12 [Compound 109]	> 5000 nM	500 to 5000 nM
CN1CCC[C@H]1COc1nc(-c2cnc(N)s2)c2cc(Cl)c(-c3cc(O)cc4cccc(Cl)c34)c(F)c2n1 [Compound 121]	> 5000 nM	> 5000 nM
CNC(=O)c1cc2c(N3CC4CCC(C3)N4)nc(OC[C@@]34CCCN3C[C@H](F)C4)nc2c(F)c1-c1cc(O)cc2cccc(Cl)c12 [Compound 122]	< 500 nM	> 5000 nM
Oc1cc(-c2c(OCC3CC3)cc3c(N4CC5CCC(C4)N5)nc(OC[C@@]45CCCN4C[C@H](F)C5)nc3c2F)c2c(Cl)cccc2c1 [Compound 124]	< 500 nM	< 500 nM
Oc1cc(-c2c(Cl)cc3c(N4CCNCC4)nc(OC[C@@]45CCCN4C[C@H](F)C5)nc3c2F)c2ccccc2c1 [Compound 126]	500 to 5000 nM	500 to 5000 nM
C[C@H]1CNCCN1c1nc(OC[C@@]23CCCN2C[C@H](F)C3)nc2c(F)c(-c3cc(O)cc4ccccc34)c(Cl)cc12 [Compound 127]	500 to 5000 nM	500 to 5000 nM
C[C@@H]1CN(c2nc(OC[C@@]34CCCN3C[C@H](F)C4)nc3c(F)c(-c4cc(O)cc5ccccc45)c(Cl)cc23)[C@@H](C)CN1 [Compound 128]	> 5000 nM	500 to 5000 nM
N#Cc1cc2c(N3CC4CCC(C3)N4)nc(OC[C@@]34CCCN3C[C@H](F)C4)nc2c(F)c1-c1cc(O)cc2ccc(F)c(Cl)c12 [Compound 129]	< 500 nM	< 500 nM
Cc1cc(N)nc(-c2c(Cl)cc3c(N4CC5CCC(C4)N5)nc(OC[C@@H]4CCCN4C)nc3c2F)c1 [Compound 130]	> 5000 nM	> 5000 nM
Cc1cccc2cccc(-c3c(Cl)cc4c(N5CC6CCC(C5)N6)nc(OC[C@@]56CCCN5C[C@H](F)C6)nc4c3F)c12 [Compound 131]	< 500 nM	500 to 5000 nM
Nc1nc2c(-c3c(Cl)cc4c(N5CC6CCC(C5)N6)nc(OC[C@@]56CCCN5C[C@H](F)C6)nc4c3F)cc(C(F)(F)F)cc2s1 [Compound 132]	< 500 nM	500 to 5000 nM
